Results on one compound are retold here after US20250019339A1, “SOLVENT COMPOUNDS FOR USE AS REPLACEMENTS FOR SLOW EVAPORATING SOLVENTS” (TBF ENVIRONMENTAL TECHNOLOGY INC., priority 2018, published 2025).

Common to all, as to type: physicochemical
One data set in a line: Evaporation rate.
The nature of data set [1]: Sustained combustion tests. Here is the method:
(§1) (420.8° F.) • Flash Point: 85.5° C.

The nature of another data set: Specific gravity.
Another data set in a line: Boiling point.
The nature of data set [2]: Flash point, PMCC closed cup. To be noted: PMCC (Penske Martin Closed Cup). On the procedure:
as §1

The next data set in a line: Kauri-Butanol value.
A short description of another data set: Vapour pressure. The note with it: @25° C.

For `CCCCC(CC)COC(=O)OC` (stereo not shown) [BibaSol, 2-ethylhexyl methyl carbonate], in “Evaporation rate”, the Evaporation rate was 0.04. Also, the Sustained combustion result in data set [1] is given as “did not sustain combustion”. The “Specific Gravity” value in “Specific gravity” amounted to 0.916. For the same compound, the “Boiling Point” value in the data set “Boiling point” was determined as 216 °C. Further, the “Flash Point” value in data set [2] was found to be 85.5 °C. In “Kauri-Butanol value”, the “Kauri-Butanol Value” is listed as 77.5. The same compound returned a Vapour pressure in the data set “Vapour pressure” of 0.09 mm Hg.
